Measured values from PMC5218480 (PLoS ONE, 2017).

Tested on: MV-4-11 cells
Assay: Gene expression microarray analysis (Affymetrix PrimeView) and GSEA
Assay type: cell-based, human
Parameters: RFU PODN (11730768_x_at) / Fold change /veh PODN (11730768_x_at) / RFU LINC00158 (11744669_a_at) / Fold change /veh LINC00158 (11744669_a_at) / RFU DUSP10 (11751237_a_at) / Fold change /veh DUSP10 (11751237_a_at) / RFU ID3 (11757404_x_at) / Fold change /veh ID3 (11757404_x_at) / RFU PLEKHG5 (11737974_s_at) / Fold change /veh PLEKHG5 (11737974_s_at) / RFU LRRC4B (11730491_at) / Fold change /veh LRRC4B (11730491_at) / RFU GIMAP4 (11747438_a_at) / Fold change /veh GIMAP4 (11747438_a_at) / RFU KRT8 (11758183_x_at) / Fold change /veh KRT8 (11758183_x_at) / RFU CNN1 (11734310_a_at) / Fold change /veh CNN1 (11734310_a_at) / RFU VPS37D (11726825_at) / Fold change /veh VPS37D (11726825_at) / RFU C10orf10 (11716522_x_at) / Fold change /veh C10orf10 (11716522_x_at) / RFU KIR2DL2 /// KIR2DL4 /// KIR2DL5A /// KIR2DL5B /// KIR2DS1 /// KIR2DS2 /// KIR2DS3 /// KIR2DS4 /// KIR3DL3 /// KIR3DL3 /// KIR3DS1 (11738374_at) / Fold change /veh KIR2DL2 /// KIR2DL4 /// KIR2DL5A /// KIR2DL5B /// KIR2DS1 /// KIR2DS2 /// KIR2DS3 /// KIR2DS4 /// KIR3DL3 /// KIR3DL3 /// KIR3DS1 (11738374_at) / RFU C1QL1 (11718748_at) / Fold change /veh C1QL1 (11718748_at) / RFU TMPRSS4 (11747572_a_at) / Fold change /veh TMPRSS4 (11747572_a_at) / RFU HAMP (11756126_x_at) / Fold change /veh HAMP (11756126_x_at) / RFU RNFT2 (11725882_a_at) / Fold change /veh RNFT2 (11725882_a_at) / RFU NR4A2 (11747474_a_at) / Fold change /veh NR4A2 (11747474_a_at) / RFU ABCC12 (11746883_a_at) / Fold change /veh ABCC12 (11746883_a_at) / RFU TMEM136 (11760407_x_at) / Fold change /veh TMEM136 (11760407_x_at) / RFU CLDN22 /// WWC2 (11732394_at) / Fold change /veh CLDN22 /// WWC2 (11732394_at) / RFU HLA-DPB1 (11760878_x_at) / Fold change /veh HLA-DPB1 (11760878_x_at) / RFU SPINT1 (11716480_a_at) / Fold change /veh SPINT1 (11716480_a_at) / RFU GAP43 (11754022_s_at) / Fold change /veh GAP43 (11754022_s_at) / RFU A4GNT (11735810_at) / Fold change /veh A4GNT (11735810_at) / RFU PRB3 (11715151_x_at) / Fold change /veh PRB3 (11715151_x_at) / RFU TUBB4B (11761932_at) / Fold change /veh TUBB4B (11761932_at) / RFU CAPN14 (11732068_a_at) / Fold change /veh CAPN14 (11732068_a_at) / RFU TMCC2 (11721928_a_at) / Fold change /veh TMCC2 (11721928_a_at) / RFU IRGQ (11745062_a_at) / Fold change /veh IRGQ (11745062_a_at) / RFU FAM174B (11720279_a_at) / Fold change /veh FAM174B (11720279_a_at) / RFU TMPRSS4 (11748680_a_at) / Fold change /veh TMPRSS4 (11748680_a_at) / RFU FAM212B (11763350_a_at) / Fold change /veh FAM212B (11763350_a_at) / RFU PLEKHG5 (11743358_a_at) / Fold change /veh PLEKHG5 (11743358_a_at) / RFU ZSCAN30 (11745921_a_at) / Fold change /veh ZSCAN30 (11745921_a_at) / RFU CMKLR1 (11741424_a_at) / Fold change /veh CMKLR1 (11741424_a_at) / RFU LOC101060620 /// MAPK8IP1 (11723275_at) / Fold change /veh LOC101060620 /// MAPK8IP1 (11723275_at) / RFU SPTSSB (11747773_x_at) / Fold change /veh SPTSSB (11747773_x_at) / RFU PRSS12 (11739890_at) / Fold change /veh PRSS12 (11739890_at) / RFU BIN1 (11741810_x_at) / Fold change /veh BIN1 (11741810_x_at) / RFU WNT11 (11732464_a_at) / Fold change /veh WNT11 (11732464_a_at) / RFU C10orf10 (11716521_a_at) / Fold change /veh C10orf10 (11716521_a_at) / RFU C5orf56 (11738089_at) / Fold change /veh C5orf56 (11738089_at) / RFU CYB561 (11721691_x_at) / Fold change /veh CYB561 (11721691_x_at) / RFU ANKRD19P (11752326_a_at) / Fold change /veh ANKRD19P (11752326_a_at) / RFU OR2T12 /// OR2T33 /// OR2T8 (11738714_s_at) / Fold change /veh OR2T12 /// OR2T33 /// OR2T8 (11738714_s_at) / RFU VCAN (11748164_a_at) / Fold change /veh VCAN (11748164_a_at) / RFU JSRP1 (11732532_at) / Fold change /veh JSRP1 (11732532_at) / RFU KRTAP10-11 (11738290_x_at) / Fold change /veh KRTAP10-11 (11738290_x_at) / RFU MYO3A (11730013_a_at) / Fold change /veh MYO3A (11730013_a_at) / RFU EBF3 (11725865_a_at) / Fold change /veh EBF3 (11725865_a_at) / RFU CAMK2N1 (11719241_x_at) / Fold change /veh CAMK2N1 (11719241_x_at) / RFU C5orf56 (11738088_a_at) / Fold change /veh C5orf56 (11738088_a_at) / RFU OLFML3 (11715873_a_at) / Fold change /veh OLFML3 (11715873_a_at) / RFU LOC100653217 /// NTM (11731650_a_at) / Fold change /veh LOC100653217 /// NTM (11731650_a_at) / RFU MAPK11 (11762145_a_at) / Fold change /veh MAPK11 (11762145_a_at) / RFU FIZ1 (11724087_x_at) / Fold change /veh FIZ1 (11724087_x_at) / RFU OASL (11726364_x_at) / Fold change /veh OASL (11726364_x_at) / RFU SOX15 (11748057_x_at) / Fold change /veh SOX15 (11748057_x_at) / RFU CD79A (11719716_a_at) / Fold change /veh CD79A (11719716_a_at) / RFU HIST1H1D (11736915_at) / Fold change /veh HIST1H1D (11736915_at) / RFU CASKIN2 (11723855_a_at) / Fold change /veh CASKIN2 (11723855_a_at) / RFU LOC730098 (11760151_x_at) / Fold change /veh LOC730098 (11760151_x_at) / RFU OR4N2 (11742367_at) / Fold change /veh OR4N2 (11742367_at) / RFU PRRT2 (11749266_a_at) / Fold change /veh PRRT2 (11749266_a_at) / RFU SNX32 (11753110_a_at) / Fold change /veh SNX32 (11753110_a_at) / RFU CDHR5 (11726645_a_at) / Fold change /veh CDHR5 (11726645_a_at) / RFU RCAN1 (11760418_a_at) / Fold change /veh RCAN1 (11760418_a_at) / RFU FAM167A (11723789_a_at) / Fold change /veh FAM167A (11723789_a_at) / RFU FAM26E (11764081_at) / Fold change /veh FAM26E (11764081_at) / RFU ISYNA1 (11749810_s_at) / Fold change /veh ISYNA1 (11749810_s_at) / RFU ACY1 (11761880_at) / Fold change /veh ACY1 (11761880_at) / RFU 11764098_at / Fold change /veh 11764098_at / RFU SAMD14 (11745864_x_at) / Fold change /veh SAMD14 (11745864_x_at) / RFU NPB (11741838_a_at) / Fold change /veh NPB (11741838_a_at) / RFU TMPRSS6 (11731388_a_at) / Fold change /veh TMPRSS6 (11731388_a_at) / RFU KRTAP10-2 (11738614_at) / Fold change /veh KRTAP10-2 (11738614_at) / RFU ARHGAP8 /// PRR5-ARHGAP8 (11727945_x_at) / Fold change /veh ARHGAP8 /// PRR5-ARHGAP8 (11727945_x_at) / RFU KRTAP5-7 /// NADSYN1 (11734609_at) / Fold change /veh KRTAP5-7 /// NADSYN1 (11734609_at) / RFU RASL12 (11751679_a_at) / Fold change /veh RASL12 (11751679_a_at) / RFU CDKN2B (11736163_a_at) / Fold change /veh CDKN2B (11736163_a_at) / RFU PRF1 (11729649_at) / Fold change /veh PRF1 (11729649_at) / RFU, ZNF638 /// ZNF638-IT1 / Fold change vs veh, ZNF638 /// ZNF638-IT1 / RFU, PANK3 / Fold change vs veh, PANK3 / RFU, SH3YL1 / Fold change vs veh, SH3YL1 / RFU, ZEB2 / Fold change vs veh, ZEB2 / RFU, NRIP1 / Fold change vs veh, NRIP1 / RFU, PTTG1IP / Fold change vs veh, PTTG1IP / RFU, CAPN2 / Fold change vs veh, CAPN2 / RFU, MED14 / Fold change vs veh, MED14 / RFU, SNORA58 / Fold change vs veh, SNORA58 / RFU, C1orf63 / Fold change vs veh, C1orf63 / RFU, LRRFIP1 / Fold change vs veh, LRRFIP1 / RFU, NDUFAF7 / Fold change vs veh, NDUFAF7 / RFU, SLC12A2 / Fold change vs veh, SLC12A2 / RFU, IBTK / Fold change vs veh, IBTK / RFU, ESF1 / Fold change vs veh, ESF1 / Fold change vs veh, TMEM50B / RFU, TAOK1 / Fold change vs veh, TAOK1 / RFU, ACBD3 / Fold change vs veh, ACBD3 / RFU, TMA16 / Fold change vs veh, TMA16 / RFU, RWDD3 / Fold change vs veh, RWDD3 / RFU, BCAT1 / Fold change vs veh, BCAT1 / RFU, EDEM3 / Fold change vs veh, EDEM3 / RFU, TMEM33 / Fold change vs veh, TMEM33 / RFU, WDR75 / Fold change vs veh, WDR75 / RFU, AHCTF1 / Fold change vs veh, AHCTF1 / RFU, TFRC / Fold change vs veh, TFRC / RFU, ZDHHC17 / Fold change vs veh, ZDHHC17 / RFU, NOM1 / Fold change vs veh, NOM1 / RFU, ARL8B / Fold change vs veh, ARL8B / RFU, ZBTB11 / Fold change vs veh, ZBTB11 / RFU, TAMM41 / Fold change vs veh, TAMM41 / RFU, KIAA1704 /// LOC100996395 / Fold change vs veh, KIAA1704 /// LOC100996395 / RFU, ING1 / Fold change vs veh, ING1 / RFU, TRMT61B / Fold change vs veh, TRMT61B / RFU, FUBP3 / Fold change vs veh, FUBP3 / RFU, TP53 / Fold change vs veh, TP53 / RFU, TNKS2 / Fold change vs veh, TNKS2 / RFU, ZFP14 / Fold change vs veh, ZFP14 / RFU, ACTR2 / Fold change vs veh, ACTR2 / RFU, PPP3R1 / Fold change vs veh, PPP3R1 / RFU, PIK3R1 / Fold change vs veh, PIK3R1 / RFU, HNRNPA1 / Fold change vs veh, HNRNPA1 / RFU, RNF170 / Fold change vs veh, RNF170 / RFU, ZNF28 / Fold change vs veh, ZNF28 / RFU, RNGTT / Fold change vs veh, RNGTT / RFU, OGT / Fold change vs veh, OGT / RFU, BRD1 / Fold change vs veh, BRD1 / RFU, MARS / Fold change vs veh, MARS / RFU, ZNF655 / Fold change vs veh, ZNF655 / RFU, FAHD1 / Fold change vs veh, FAHD1 / RFU, BDP1 / Fold change vs veh, BDP1 / RFU, LRRCC1 / Fold change vs veh, LRRCC1 / RFU, ARID1A / Fold change vs veh, ARID1A / RFU, ZNF146 / Fold change vs veh, ZNF146 / RFU, ZNF330 / Fold change vs veh, ZNF330 / RFU, GPN3 / Fold change vs veh, GPN3 / RFU, C9orf123 / Fold change vs veh, C9orf123 / RFU, N4BP2L2 / Fold change vs veh, N4BP2L2 / RFU, ARFIP1 / Fold change vs veh, ARFIP1 / RFU, FAM179B / Fold change vs veh, FAM179B / RFU, BCL10 / Fold change vs veh, BCL10 / RFU, UHRF1BP1L / Fold change vs veh, UHRF1BP1L / RFU, BET1 / Fold change vs veh, BET1 / RFU, CNOT2 / Fold change vs veh, CNOT2 / RFU, ZNF268 / Fold change vs veh, ZNF268 / Fold change vs veh, ZNF507 / RFU, DGCR2 / Fold change vs veh, DGCR2 / RFU, WDSUB1 / Fold change vs veh, WDSUB1 / Fold change vs veh, HSP90B1 /// MIR3652 / RFU, ADSS / Fold change vs veh, ADSS / RFU, GK / Fold change vs veh, GK / RFU, ZNF148 / Fold change vs veh, ZNF148 / RFU, TAF9 / Fold change vs veh, TAF9 / RFU, SLC1A5 / Fold change vs veh, SLC1A5 / RFU, SLMO2 / Fold change vs veh, SLMO2 / RFU, ABCC4 / Fold change vs veh, ABCC4 / RFU, LOC101060439 /// RAP1B / Fold change vs veh, LOC101060439 /// RAP1B / RFU, RFX7 / Fold change vs veh, RFX7 / RFU, GTPBP10 / Fold change vs veh, GTPBP10 / RFU, CNEP1R1 / Fold change vs veh, CNEP1R1 / RFU, BIVM-ERCC5 /// ERCC5 / Fold change vs veh, BIVM-ERCC5 /// ERCC5 / RFU, ILF3 / Fold change vs veh, ILF3 / RFU 11762660_at / Fold change /veh 11762660_at / RFU VCAN (11757783_s_at) / Fold change /veh VCAN (11757783_s_at) / RFU DDX43 (11728927_at) / Fold change /veh DDX43 (11728927_at) / RFU KRT8 (11758188_x_at) / Fold change /veh KRT8 (11758188_x_at) / RFU NKD1 (11759106_at) / Fold change /veh NKD1 (11759106_at) / RFU SRD5A1 (11742802_a_at) / Fold change /veh SRD5A1 (11742802_a_at) / RFU TPSAB1 /// TPSB2 (11721975_s_at) / Fold change /veh TPSAB1 /// TPSB2 (11721975_s_at) / RFU GSTM3 (11746129_a_at) / Fold change /veh GSTM3 (11746129_a_at) / RFU IL23R (11737362_x_at) / Fold change /veh IL23R (11737362_x_at) / RFU TMEM51 (11727254_a_at) / Fold change /veh TMEM51 (11727254_a_at) / RFU PIWIL2 (11732686_x_at) / Fold change /veh PIWIL2 (11732686_x_at) / RFU ORM1 (11744905_x_at) / Fold change /veh ORM1 (11744905_x_at) / RFU CCDC152 (11743942_at) / Fold change /veh CCDC152 (11743942_at) / RFU ECM1 (11717891_a_at) / Fold change /veh ECM1 (11717891_a_at) / RFU IL23R (11748794_a_at) / Fold change /veh IL23R (11748794_a_at) / RFU TNFAIP8L3 (11732012_x_at) / Fold change /veh TNFAIP8L3 (11732012_x_at) / RFU MBOAT4 (11741988_at) / Fold change /veh MBOAT4 (11741988_at) / RFU 11764193_at / Fold change /veh 11764193_at / RFU TMEM53 (11763286_at) / Fold change /veh TMEM53 (11763286_at) / RFU MAGEB2 (11727129_at) / Fold change /veh MAGEB2 (11727129_at) / RFU TMEM200A (11744735_a_at) / Fold change /veh TMEM200A (11744735_a_at) / RFU CCDC152 (11751479_a_at) / Fold change /veh CCDC152 (11751479_a_at) / RFU FAM211A (11726209_a_at) / Fold change /veh FAM211A (11726209_a_at) / RFU RGS16 (11746705_a_at) / Fold change /veh RGS16 (11746705_a_at) / RFU VCAN (11755009_s_at) / Fold change /veh VCAN (11755009_s_at) / RFU RHOB (11743442_s_at) / Fold change /veh RHOB (11743442_s_at) / RFU RGS16 (11720943_a_at) / Fold change /veh RGS16 (11720943_a_at) / RFU RGS16 (11720944_at) / Fold change /veh RGS16 (11720944_at) / RFU, VPS4B / Fold change vs veh, VPS4B / RFU, CREB1 / Fold change vs veh, CREB1 / RFU, DNAJC13 / Fold change vs veh, DNAJC13 / RFU, GNAQ / Fold change vs veh, GNAQ / RFU, CDK5R1 / Fold change vs veh, CDK5R1 / RFU, ZRANB3 / Fold change vs veh, ZRANB3 / RFU, CUL4A / Fold change vs veh, CUL4A / RFU, CCNY / Fold change vs veh, CCNY / RFU, UFL1 / Fold change vs veh, UFL1 / RFU, COG3 / Fold change vs veh, COG3 / RFU, DIAPH2 / Fold change vs veh, DIAPH2 / RFU, SKA2 / Fold change vs veh, SKA2 / RFU, AFF3 / Fold change vs veh, AFF3 / RFU, LMF1 / Fold change vs veh, LMF1 / RFU, IPO11 / Fold change vs veh, IPO11 / RFU, DFFB / Fold change vs veh, DFFB / RFU, FOXP1 / Fold change vs veh, FOXP1 / RFU, CARD8 / Fold change vs veh, CARD8 / RFU, STRN3 / Fold change vs veh, STRN3 / RFU, ADK / Fold change vs veh, ADK / RFU, RASSF2 / Fold change vs veh, RASSF2 / RFU, WIPF1 / Fold change vs veh, WIPF1 / RFU, LARP1B / Fold change vs veh, LARP1B / RFU, RASA1 / Fold change vs veh, RASA1 / RFU, RB1 / Fold change vs veh, RB1 / RFU, PPFIA1 / Fold change vs veh, PPFIA1 / RFU, MAT2A / Fold change vs veh, MAT2A / RFU, CCT5 / Fold change vs veh, CCT5 / RFU, WDR92 / Fold change vs veh, WDR92 / RFU, CUX1 / Fold change vs veh, CUX1 / RFU, TTC7A / Fold change vs veh, TTC7A / RFU, TMEM135 / Fold change vs veh, TMEM135 / RFU, DEPTOR / Fold change vs veh, DEPTOR / RFU, CPM / Fold change vs veh, CPM / RFU, DNAJB6 / Fold change vs veh, DNAJB6 / RFU, CACNA2D3 / Fold change vs veh, CACNA2D3 / RFU, DTX4 / Fold change vs veh, DTX4 / RFU, TFCP2 / Fold change vs veh, TFCP2 / RFU, GMCL1 /// GMCL1P1 / Fold change vs veh, GMCL1 /// GMCL1P1 / RFU, AEBP2 / Fold change vs veh, AEBP2 / RFU, SNHG1 /// SNORD22 /// SNORD25 /// SNORD26 /// SNORD27 /// SNORD28 /// SNORD29 /// SNORD31 / Fold change vs veh, SNHG1 /// SNORD22 /// SNORD25 /// SNORD26 /// SNORD27 /// SNORD28 /// SNORD29 /// SNORD31 / Fold change (Aza/veh), C12orf56 (ProbeSet 11735607_a_at) / Fold change (ACY-1035/veh), C12orf56 (ProbeSet 11735607_a_at) / Fold change (Aza/veh), FGFR1OP (ProbeSet 11751329_s_at) / Fold change (ACY-1035/veh), FGFR1OP (ProbeSet 11751329_s_at) / Fold change (Aza/veh), VPS36 (ProbeSet 11739960_a_at) / Fold change (ACY-1035/veh), VPS36 (ProbeSet 11739960_a_at) / RFU SYPL1 (11715823_x_at) / Fold change /veh SYPL1 (11715823_x_at) / RFU IGFBP7 (11715501_s_at) / Fold change /veh IGFBP7 (11715501_s_at) / RFU REEP3 (11722064_at) / Fold change /veh REEP3 (11722064_at) / RFU IGLL1 (11728026_x_at) / Fold change /veh IGLL1 (11728026_x_at): dose or concentration left out as unconfirmed
Details: MV-4-11 cells, 48 hours

Structure (SMILES): Nc1ncn([C@@H]2O[C@H](CO)[C@@H](O)[C@H]2O)c(=O)n1 [azacitidine]
- RFU WNT11 (11732464_a_at): 6.46 RFU
